21 molecules from ChEMBL document CHEMBL1133155, “Carbonic anhydrase inhibitors: topical sulfonamide antiglaucoma agents incorporating secondary amine moieties” (Bioorg Med Chem Lett, 2000) can be followed below.

Values after ≈ are worked out from the molar mass of the structure shown.

A word on the Ki: it is the equilibrium dissociation constant of an inhibitor or competing ligand from its target. Higher therefore signals weaker binding. Broadly, the solubility is how much of the substance goes into solution per volume. Higher therefore signals much dissolved substance. What is called logD is the decadic logarithm of the distribution of all forms, ionised or not, between an organic phase and buffer at a given pH. Low readings indicate lower lipophilicity, high ones higher lipophilicity.

Series [1] has as its target T1, Carbonic anhydrase 4 (Bos taurus, UniProt Q95323).
T1 sequence (Q95323 whole entry): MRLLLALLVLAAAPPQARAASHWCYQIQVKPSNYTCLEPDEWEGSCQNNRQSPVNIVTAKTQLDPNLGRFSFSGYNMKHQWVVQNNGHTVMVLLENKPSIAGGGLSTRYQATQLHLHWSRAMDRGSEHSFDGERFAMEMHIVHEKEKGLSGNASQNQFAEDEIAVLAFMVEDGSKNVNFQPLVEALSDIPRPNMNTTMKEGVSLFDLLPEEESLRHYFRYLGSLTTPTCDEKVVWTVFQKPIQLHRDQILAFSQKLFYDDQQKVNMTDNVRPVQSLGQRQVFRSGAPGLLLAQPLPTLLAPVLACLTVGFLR
Description: Inhibition of bovine Carbonic anhydrase IV determined by esterase method

In series [2] the target is Carbonic anhydrase 1 (Homo sapiens, UniProt P00915).
Sequence of Carbonic anhydrase 1 (P00915 whole entry): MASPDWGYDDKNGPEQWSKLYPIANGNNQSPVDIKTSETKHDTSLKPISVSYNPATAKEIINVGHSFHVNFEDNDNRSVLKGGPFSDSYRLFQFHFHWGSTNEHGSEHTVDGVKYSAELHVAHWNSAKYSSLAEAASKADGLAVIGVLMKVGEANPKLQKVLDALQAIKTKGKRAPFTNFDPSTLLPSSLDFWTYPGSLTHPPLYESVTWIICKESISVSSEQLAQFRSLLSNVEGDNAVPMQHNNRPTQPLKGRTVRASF
Description: Inhibition of human cloned Carbonic anhydrase I
Series [3] deals with Carbonic anhydrase 2 (Homo sapiens, UniProt P00918).
Description: Inhibition of human cloned Carbonic anhydrase II
The species named for series [4] is Oryctolagus cuniculus.
Description: Reduction of intraocular pressure in normotensive rabbits after treatment with 50 uL of compound (as HCl salt) at pH 5.5 in eye after 60 min from administration, to that of controls
For series [5], the species on record is Oryctolagus cuniculus. The source holds these as a separate data set.
Description: Reduction of intraocular pressure in normotensive rabbits after treatment with 50 uL of compound (as HCl salt) at pH 5.5 in eye after 240 min from administration, to that of controls
Series [6] is described as follows: physchem. As to conditions: buffer, pH 7.4.
Description: Solubility (hydrochloride salt) in buffer at pH 7.4 and at 25 degree celsius.
Series [7] is filed under the species Oryctolagus cuniculus. The source holds these as a separate data set.
Description: In vitro transcorneal accession rate (without epithelium) of compound was determined
For series [8], the species on record is Oryctolagus cuniculus. The source holds these as a separate data set.
Description: Reduction of intraocular pressure in normotensive rabbits after treatment with 50 uL of compound (as HCl salt) at pH 5.5 in eye after 90 min from administration, to that of controls
For series [9], the species on record is Oryctolagus cuniculus. The source holds these as a separate data set.
Description: Reduction of intraocular pressure in normotensive rabbits after treatment with 50 uL of compound (as HCl salt) at pH 5.5 in eye after 30 min from administration, to that of controls
Series [10] is filed under the species Oryctolagus cuniculus. The source holds these as a separate data set.
Description: In vitro transcorneal accession rate (intact cornea) of compound was determined
The conditions of series [11]: octanol/water.
Description: Partition coefficient (logD) (chloroform/buffer)
For series [12], the species on record is Oryctolagus cuniculus. The source holds these as a separate data set.
Description: Reduction of intraocular pressure in normotensive rabbits after treatment with 50 uL of compound (as HCl salt) at pH 5.5 in eye after 0 min from administration, to that of controls

Turning to `NS(=O)(=O)c1ccccc1NCc1cc(=O)oc2cc(Cl)ccc12`, the results for the Ki in [1], in series [2] and in series [3] were 300 nM, 21500 nM and 270 nM, respectively.
The corresponding values for `Cn1nc(S(N)(=O)=O)s/c1=N\S(=O)(=O)c1ccc(NCc2cc(=O)oc3cc(Cl)ccc23)cc1` are 0.6 nM, 1 nM and 0.5 nM.
`NS(=O)(=O)c1ccc(NCc2cc(=O)oc3cc(Cl)ccc23)c(Cl)c1`: the values for the Ki in [1], in series [2] and in series [3] were 96 nM, 520 nM and 45 nM, respectively.
For the molecule `NS(=O)(=O)c1nnc(NC(=O)CCNCc2cc(=O)oc3cc(Cl)ccc23)s1`, the results for the Ki in [1], in series [2] and in series [3] were 16 nM, 12 nM and 2 nM, respectively. The “Delta IOP” value in [4] came to 8.3 mmHg; in series [5] it was 3.4 mmHg; in series [8] it was 7.2 mmHg; in series [9] it was 5.1 mmHg; in series [12] it was 0 mmHg. Besides, the concentration in solution in series [6] (solubility) was 62 mM (≈ 27.5 mg/mL). In addition, the values for the Kin in series [7] and in [10] were 8400 h⁻¹ and 3300 h⁻¹, respectively. Moreover, the logD in series [11] is listed as 0.683.
On to `NS(=O)(=O)c1nnc(NN2C(=O)c3cccnc3C2=O)s1`, for which the Ki in series [1] was 18 nM; in series [2] it was 39 nM; in series [3] it was 8 nM. The same molecule came in with a solubility in series [6] of 72 mM (≈ 23.5 mg/mL). Further, the Kin in series [7] came out at 7600 h⁻¹; in series [10], 2500 h⁻¹. The molecule further yielded a logD in [11] of 0.315.
For `NS(=O)(=O)c1cc(S(N)(=O)=O)c(NCc2cc(=O)oc3cc(Cl)ccc23)cc1Cl`, the results for the Ki in [1], in series [2] and in [3] were 50 nM, 400 nM and 12 nM, respectively.
As for `NS(=O)(=O)c1nnc(NS(=O)(=O)c2ccc(NCc3cc(=O)oc4cc(Cl)ccc34)cc2)s1`, the Ki in [1] stood at 4 nM; in [2], 5 nM; in series [3] it was 2 nM.
Consider `Cn1nc(S(N)(=O)=O)s/c1=N\Cc1cc(=O)oc2cc(Cl)ccc12`, for which the Ki turned out to be 16 nM in series [1], 29 nM in series [2] and 6 nM in series [3]. Besides, the “Delta IOP” value in series [4] was found to be 6 mmHg.
`NS(=O)(=O)c1nnc(NCc2cc(=O)oc3cc(Cl)ccc23)s1`: the Ki in series [1] came to 15 nM; in series [2] it was 36 nM; in [3], 7 nM. The “Delta IOP” value in series [4] was found to be 5.8 mmHg; in series [5], 1.5 mmHg; in [8], 4.9 mmHg; in [9] it was 3.9 mmHg; in series [12], 0 mmHg. The concentration in solution in series [6] (solubility) was 54 mM (≈ 20.1 mg/mL). Further, the figures for the Kin in series [7] and in series [10] were 6500 h⁻¹ and 2800 h⁻¹, respectively. Also, the log distribution coefficient (logD) in series [11] was found to be 0.558.
With `NS(=O)(=O)c1cccc(NS(=O)(=O)c2ccc(NCc3cc(=O)oc4cc(Cl)ccc34)cc2)c1`, the figures for the inhibitory constant (Ki) in series [1], in series [2] and in series [3] were 30 nM, 36 nM and 6 nM, respectively.
On the same counts, the results for `NS(=O)(=O)c1ccc(CNCc2cc(=O)oc3cc(Cl)ccc23)cc1` are 240 nM, 1060 nM and 145 nM.
On the same counts, the results for `NS(=O)(=O)c1ccc(NNCc2cc(=O)oc3cc(Cl)ccc23)cc1` are 320 nM, 21800 nM and 275 nM.
Take `NS(=O)(=O)c1ccc(NS(=O)(=O)c2ccc(NCc3cc(=O)oc4cc(Cl)ccc34)cc2)cc1`: the Ki in series [1] was determined as 14 nM; in series [2], 33 nM; in series [3], 3 nM.
On to `NS(=O)(=O)c1ccc(NCc2cc(=O)oc3cc(Cl)ccc23)c(Br)c1`, for which the Ki in series [1] was determined as 78 nM; in series [2] it was 600 nM; in series [3], 33 nM.
In the case of `NS(=O)(=O)c1ccc(NCc2cc(=O)oc3cc(Cl)ccc23)c(I)c1`, the Ki is 70 nM in [1], 610 nM in [2] and 36 nM in series [3].
For `CCN(Cc1cc(=O)oc2cc(Cl)ccc12)C1CC(C)S(=O)(=O)c2sc(S(N)(=O)=O)cc21` (stereo not given), the Ki is 25 nM in [1], 18000 nM in series [2] and 8 nM in [3]. In addition, the “Delta IOP” value is reported as 3.7 mmHg in series [4]; 0 mmHg in series [5]; 1.6 mmHg in series [8]; 1.9 mmHg in [9]; 0 mmHg in series [12]. In addition, the solubility in [6] came out at 41 mM (≈ 21.2 mg/mL). For the same molecule, the values for the Kin in series [7] and in series [10] were 5900 h⁻¹ and 2100 h⁻¹, respectively. Further, in series [11], the logD is 1.762.
Take `NS(=O)(=O)c1ccc(NCc2cc(=O)oc3cc(Cl)ccc23)cc1`: the Ki in series [1] was 170 nM; in series [2] it was 15000 nM; in [3], 125 nM.
On to `NS(=O)(=O)c1ccc(CCNCc2cc(=O)oc3cc(Cl)ccc23)cc1`, for which the values for the Ki in series [1], in [2] and in series [3] were 225 nM, 950 nM and 120 nM, respectively.
`NS(=O)(=O)c1ccc(NCc2cc(=O)oc3cc(Cl)ccc23)c(F)c1`: the results for the Ki in series [1], in series [2] and in [3] were 110 nM, 540 nM and 30 nM, respectively.
For `NS(=O)(=O)c1cccc(NCc2cc(=O)oc3cc(Cl)ccc23)c1`, the Ki worked out at 280 nM in series [1], 20000 nM in [2] and 250 nM in series [3].
On the same counts, the results for `NS(=O)(=O)c1cc(S(N)(=O)=O)c(NCc2cc(=O)oc3cc(Cl)ccc23)c(Cl)c1Cl` are 49 nM, 500 nM and 18 nM.
